Experimental data taken from patent US20150368297A1, “Novel Peptide Compound for Inhibiting Restenosis and Promoting Re-Endothelialization and Method for Preparing the Same” (Chonnam National University Hospital, priority 2014, published 2015).

Test system: vascular smooth muscle cell (SMC)
Test: Effect on proliferation of vascular smooth muscle cell (SMC), XTT assay
Type: cell-based
Conditions: 1 uM compound; measured at 1, 4 and 7 days; versus non-treated control; FIG. 1
Protocol: As cells used in a cell culture, the vascular smooth muscle cell (SMC) which is a smooth muscle cell, and the human umbilical vein endothelial cell (HUVEC) which is the cell for promoting vascular re-endothelialization were purchased from Korea Cell Line Bank, respectively. The cell culture was performed by culturing the vascular smooth muscle cell (SMC) and the human umbilical vein endothelial cell (HUVEC) in Dulbecoco's modified eagle medium (DMEM) with 10% fetal bovine serum (FBS) under conditions of 37° C. and 5% CO2. […]
5×10^4 of SMC cells cultured according to Example 2 were cultured in the 24-well cell culture plate and then treated with 1 uM of the peptide compound prepared by Example 2 (hereinafter, referred to as ‘EVR-P’). […] After the reaction, 200 ul of the culture medium was transferred from each well to a 96 well cell culture dish, and degree of color change was measured from absorbance at a 450 nm wavelength by a spectroscopy.
5×10^4 of SMC cells cultured according to Example 2 were cultured in the 24-well cell culture plate and then treated with 1 uM of the known Everolimus (EVR)(LC Laboratories). […] After the reaction, 200 ul of the culture medium was transferred from each well to the 96 well cell culture dish, and degree of color change was measured from absorbance at a 450 nm wavelength by a spectroscopy.

**Q.** Which “SMC cell proliferation (XTT, absorbance at 450 nm)” value does the source give for CO[C@H]1C[C@@H]2CC[C@@H](C)[C@@](O)(O2)C(=O)C(=O)N2CCCC[C@H]2C(=O)O[C@H]([C@H](C)C[C@@H]2CC[C@@H](OCCO)[C@H](OC)C2)CC(=O)[C@H](C)/C=C(\C)[C@@H](O)[C@@H](OC)C(=O)[C@H](C)C[C@H](C)/C=C/C=C/C=C/1C [EVR, Everolimus] here?
**A.** cell proliferation was inhibited
